The results in this text go back to publication PMC10958501, “4-Oxypiperidine Ethers as Multiple Targeting Ligands at Histamine H3 Receptors and Cholinesterases” (ACS Chemical Neuroscience, 2024).

By IC50 is commonly meant the concentration needed to halve the response being measured.

One assay deals with T1, gpH3R (Cavia porcellus, UniProt Q9JI35).
T1 construct: isolated guinea pig ileum electrically stimulated to contraction; from tissue; host or cells: distal ileum of male guinea pigs
The experiment in a line: Ex vivo gpH3R screening on isolated guinea pig ileum electrically stimulated to contraction. The method, then:
All newly synthesized compounds were evaluated ex vivo as H3R antagonists/inverse agonists on guinea pig ileum (gpH3R) stimulated electrically for contraction.[47]
The compounds were tested against H3R by an ex vivo assay using isolated guinea pig ileum electrically stimulated to contraction, according to Vollinga et al.[47] The pA2-values were calculated according to Arunlakshana and Schild.[59] The radioligand-displacement assay was performed in membrane fractions of HEK-293 cells stably expressing hH3R. Cell cultivation and membrane preparation were performed according to Kottke et al.[48] The Ki values were calculated from the IC50 values using the Cheng–Prusoff equation.[60] The statistical calculations were performed on −log(Ki). […] The inhibitory activities toward AChE and BuChE of novel ADS compounds were assessed in a spectrophotometric Ellman’s assay using electric eel AChE (eeAChE) and equine BuChE (eqBuChE).[57] Intracellular cAMP accumulation was measured with a homogeneous TR-FRET immunoassay using the LANCE Ultra cAMP kit (PerkinElmer) and HEK293 cells stably expressing the human histamine H3 receptor.[61] A more detailed description of the biological methods is presented in the Supporting Information.
3. Pharmacological assay results.
3.1. Ex vivo assay for histamine H 3R receptor antagonists on guinea pig ileum.
Male guinea pigs, weighing 300-400 g were euthanized by a blow to the neck. Following this, a 20-30 cm length of the distal ileum, apart from the terminal 5 cm was rapidly removed and […]
USA) (1·10 -6 mol/L). The intraluminal content was rinsed and the isolated intestine was cut into 1.5-2 cm segments. The preparations were mounted between two platinum electrodes […]
and indomethacin (3·10 -7 mol/L).
CO2 mixture and maintained at 37 °C under a constant load of 1.0 g (Hugo Sachs Hebel-Messvorsatz (Tl-2)/HF-modem; Hugo Sachs Elektronik, Hugstetten, Germany) connected to a pen recorder (Kipp & Zonen BD41, Delft, Holland). During an equilibration period of 60 min, the Krebs buffer was changed every 10 min. The preparations were then continuously stimulated at 15-20 V at a frequency of 0.1 Hz for a duration of 0.5 ms, with rectangular-wave electrical pulses (Grass Stimulator S-88; Grass Instruments Co., Quincy, Massachusetts, […]
USA). […] Five minutes before (R)-(−)-α- […]
methylhistamine (RAMH) (Toronto Research Chemicals Inc., North York, Canada), administration, pyrilamine (Sigma-Aldrich, St. Louis, MO, USA) (1·10-5 mol/L concentration in organ bath) was added. The first cumulative concentration-response curve was determined […]
second to fourth curve was measured against increasing antagonist concentration (incubation time 20 min). The pA2-values were calculated according to Arunlakshana and Schild 5.
Statistical analysis was carried out with the Student’s t-test. In all tests, a p<0.05 was […]
considered statistically significant. The pA2 values were compared with the affinity of thioperamide (Sigma-Aldrich, St. Louis, MO, USA). […]

Another assay addresses eqBuChE (Equus caballus, UniProt P81908). The experiment in a line: biochemical.
Assay [1] concerns the target T2, human histamine H3 receptor (Homo sapiens, UniProt Q9Y5N1).
T2 construct: expressed in transfected cells
In words: H3R intrinsic activity, cAMP accumulation assay in HEK293 cells. In kind it is cell-based. The protocol:
For the lead compound ADS031, intrinsic activity at H3R was tested in HEK293 cells expressing recombinant human receptors using a cAMP accumulation assay. […] […].
The compounds were tested against H3R by an ex vivo assay using isolated guinea pig ileum electrically stimulated to contraction, according to Vollinga et al.[47] The pA2-values were calculated according to Arunlakshana and Schild.[59] The radioligand-displacement assay was performed in membrane fractions of HEK-293 cells stably expressing hH3R. Cell cultivation and membrane preparation were performed according to Kottke et al.[48] The Ki values were calculated from the IC50 values using the Cheng–Prusoff equation.[60] The statistical calculations were performed on −log(Ki). The mean values and 95% confidence intervals were transformed to nanomolar concentrations. The inhibitory activities toward AChE and BuChE of novel ADS compounds were assessed in a spectrophotometric Ellman’s assay using electric eel AChE (eeAChE) and equine BuChE (eqBuChE).[57] Intracellular cAMP accumulation was measured with a homogeneous TR-FRET immunoassay using the LANCE Ultra cAMP kit (PerkinElmer) and HEK293 cells stably expressing the human histamine H3 receptor.[61] A more detailed description of the biological methods is presented in the Supporting Information.
3.4. H3R intrinsic activity.
Intracellular cAMP accumulation was measured with homogenous TR-FRET immunoassay, using LANCE Ultra cAMP kit (PerkinElmer) and HEK293 cells, stably expressing human histamine H3 receptor. An antagonist dose-response experiments were performed in a total assay volume of 20 μl in white 384-well plates, using 750 cells/well. […] TR-FRET signal was read on Spark microplate reader (Tecan Life Sciences). Measured TR-FRET, which was inversely proportional to cAMP quantities in the sample, was then normalized and presented as % of maximal cAMP accumulation in the assay determined for the forskolin alone-stimulated cells. […]

A further assay deals with T3, eeAChE (Electrophorus electricus, UniProt O42275).
T3 construct: purchased Sigma–Aldrich (Steinheim, Germany)
In words: biochemical.

T2 sequence (Q9Y5N1 whole entry): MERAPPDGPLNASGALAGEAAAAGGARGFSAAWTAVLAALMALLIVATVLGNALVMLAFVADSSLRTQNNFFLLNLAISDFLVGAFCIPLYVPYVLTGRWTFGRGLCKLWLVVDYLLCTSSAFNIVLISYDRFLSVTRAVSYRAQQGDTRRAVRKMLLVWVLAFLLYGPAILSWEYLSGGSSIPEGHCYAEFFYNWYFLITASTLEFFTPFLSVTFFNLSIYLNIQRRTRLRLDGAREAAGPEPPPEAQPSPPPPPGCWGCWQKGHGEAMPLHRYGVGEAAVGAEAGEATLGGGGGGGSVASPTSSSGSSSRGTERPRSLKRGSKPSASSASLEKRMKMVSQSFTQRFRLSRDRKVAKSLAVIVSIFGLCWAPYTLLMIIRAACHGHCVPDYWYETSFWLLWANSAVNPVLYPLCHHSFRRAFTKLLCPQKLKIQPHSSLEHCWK
T3 sequence (O42275 24-633): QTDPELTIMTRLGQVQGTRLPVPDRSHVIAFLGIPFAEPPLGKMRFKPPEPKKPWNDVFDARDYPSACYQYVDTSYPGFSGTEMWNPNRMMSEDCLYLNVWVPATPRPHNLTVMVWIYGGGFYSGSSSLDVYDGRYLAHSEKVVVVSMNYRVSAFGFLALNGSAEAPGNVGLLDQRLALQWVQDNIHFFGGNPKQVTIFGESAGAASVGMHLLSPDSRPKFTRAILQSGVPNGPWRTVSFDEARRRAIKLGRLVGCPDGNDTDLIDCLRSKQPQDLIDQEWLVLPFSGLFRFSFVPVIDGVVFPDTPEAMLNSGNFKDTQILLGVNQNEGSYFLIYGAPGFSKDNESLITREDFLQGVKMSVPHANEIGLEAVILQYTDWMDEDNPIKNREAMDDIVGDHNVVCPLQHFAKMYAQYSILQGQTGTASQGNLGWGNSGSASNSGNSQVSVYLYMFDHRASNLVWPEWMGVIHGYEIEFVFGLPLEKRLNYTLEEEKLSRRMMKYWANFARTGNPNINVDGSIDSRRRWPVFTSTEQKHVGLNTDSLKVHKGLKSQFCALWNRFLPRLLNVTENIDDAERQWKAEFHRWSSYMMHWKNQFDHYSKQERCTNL
Sequence of eqBuChE (P81908 whole entry): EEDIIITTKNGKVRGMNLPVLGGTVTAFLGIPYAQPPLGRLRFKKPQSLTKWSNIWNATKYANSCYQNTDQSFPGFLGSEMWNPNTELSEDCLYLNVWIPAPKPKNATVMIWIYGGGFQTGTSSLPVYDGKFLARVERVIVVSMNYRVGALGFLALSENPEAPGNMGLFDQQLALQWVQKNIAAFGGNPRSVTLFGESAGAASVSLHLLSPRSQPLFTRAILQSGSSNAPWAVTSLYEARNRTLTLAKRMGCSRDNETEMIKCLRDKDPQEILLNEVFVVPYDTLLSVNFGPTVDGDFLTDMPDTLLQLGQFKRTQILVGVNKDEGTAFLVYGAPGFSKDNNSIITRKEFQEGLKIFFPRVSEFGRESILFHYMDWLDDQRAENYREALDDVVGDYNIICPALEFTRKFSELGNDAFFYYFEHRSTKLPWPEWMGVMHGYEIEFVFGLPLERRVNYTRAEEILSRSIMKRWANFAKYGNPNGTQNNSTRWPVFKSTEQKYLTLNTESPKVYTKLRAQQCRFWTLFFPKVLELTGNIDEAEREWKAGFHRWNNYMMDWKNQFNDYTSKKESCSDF
T1 sequence (Q9JI35 whole entry): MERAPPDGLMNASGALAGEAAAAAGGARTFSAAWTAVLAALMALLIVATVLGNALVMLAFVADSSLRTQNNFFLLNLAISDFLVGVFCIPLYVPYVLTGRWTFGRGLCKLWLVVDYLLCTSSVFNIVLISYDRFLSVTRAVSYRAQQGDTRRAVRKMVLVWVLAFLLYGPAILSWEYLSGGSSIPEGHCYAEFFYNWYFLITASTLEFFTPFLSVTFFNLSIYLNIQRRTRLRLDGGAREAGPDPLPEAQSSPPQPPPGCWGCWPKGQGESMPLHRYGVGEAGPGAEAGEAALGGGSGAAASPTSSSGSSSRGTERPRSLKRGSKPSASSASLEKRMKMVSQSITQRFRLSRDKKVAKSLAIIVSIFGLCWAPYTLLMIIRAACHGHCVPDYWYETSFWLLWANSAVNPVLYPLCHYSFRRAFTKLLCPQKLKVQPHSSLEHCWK

In the case of `CCCN(C)Cc1ccc2cc(COC3CCN(Cc4ccccc4)CC3)ccc2c1` [ADS031, N-((6-(((1-Benzylpiperidin-4-yl)oxy)methyl)naphthalen-2-yl)methyl)-N-methylpropan-1-amine], the Kb was 28.8 nM on gpH3R and 0.75 ± 0.15 nM in assay [1] (Leff-Dougall variant of Cheng-Prusoff equation, read-out: Kb in H3R functional assay (cAMP accumulation)). In addition, the inhibition at 10 µM on eqBuChE (read-out: eqBuChE % inh. (10 μM) ± SD) was 93.1 ± 0.4%; at eeAChE (read-out: eeAChE % inh. (10μM) ± SD) it was 84.2 ± 0.6%. For the same molecule, the IC50 at eqBuChE (read-out: eqBuChE IC50 [μM] ± sem) amounted to 1.35 ± 0.05 µM; in assay [1] (against (R)-(−)-α-methylhistamine (30 nM), forskolin-stimulated HEK293 cells, read-out: IC50 in H3R functional assay (cAMP accumulation)) it was 41.7 ± 8.5 nM; at eeAChE (read-out: eeAChE IC50 (μM) ± sem) it was 1.54 ± 0.038 µM. Moreover, in assay [1] (cAMP accumulation assay), the H3R intrinsic activity entry was “H3R antagonist/inverse agonist”.
